Experimental data published in patent US10800789B2, “Antiviral compounds” (Gilead Pharmasset LLC, priority 2012, dated 2020).
Read-outs that look alike come from different tables or passages of the source.

How the values were obtained:
[1] = system: NS5A chimeric genotype 2a JFH-1 replicon with genotype 2b MD2b-1 strain NS5A gene (M31 present); test: Replicon assay, genotype 2b NS5A chimera; assay type: cell-based, HCV; details: Hepatitis C virus
Outline: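 EC50 was fitted by non-linear regression to Renilla luciferase signal after 72 h of exposure to 3-fold serially diluted compound (10 mM DMSO stocks). Controls were DMSO (none) and ITMN-191 above 100×EC50 (full). Chimeric 2a replicons were used either stable or transiently transfected into Huh-Lunet cells.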

[2] = system: stable HCV 1a RLuc replicon cells (dicistronic genotype 1a H77 replicon); test: Renilla luciferase HCV replicon reporter assay, genotype 1a; assay type: cell-based; details: Hepatitis C virus, 72 h, stable 1a H77 RLuc replicon cells
Outline: (§1)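 First, 3-fold serial dilutions of compound went onto replicon cells, DMSO serving as no-inhibition control and ITMN-191 at >100×EC50 as positive control. Next came 72 h incubation, lysis and Renilla luciferase measurement. Finally, EC50 was calculated by non-linear regression; replicons covered genotypes 1a H77, 1b Con1, 2a JFH-1 (L31) and J6-NS5A chimera (M31).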

[3] = system: NS5A chimeric genotype 1b Con1 replicon with genotype 4a ED43 strain NS5A gene; test: Replicon assay, genotype 4a NS5A chimera; assay type: cell-based, HCV; details: Hepatitis C virus
[4] = system: NS5A chimeric genotype 1b Con1 replicon with genotype 3a S52 strain NS5A gene; test: Replicon assay, genotype 3a NS5A chimera; assay type: cell-based, HCV; details: Hepatitis C virus
[5] = system: stable HCV 1b RLuc replicon cells (dicistronic genotype 1b Con1 replicon); test: Renilla luciferase HCV replicon reporter assay, genotype 1b; assay type: cell-based; details: Hepatitis C virus, 72 h, stable 1b Con1 RLuc replicon cells, 72 hours; read-out: 1b
Outline: as §1

[6] = system: stable HCV 2a JFH-1 Rluc replicon cells (L31 present in NS5A); test: Renilla luciferase HCV replicon reporter assay, genotype 2a JFH-1; assay type: cell-based; details: Hepatitis C virus
Outline: as §1

[7] = system: NS5A chimeric genotype 2a JFH-1 replicon with genotype 2a J6 strain NS5A gene (M31 present); test: Replicon assay, genotype 2a J6 NS5A chimera; assay type: cell-based, HCV; details: Hepatitis C virus
Outline: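 72 h compound exposure (3-fold dilutions from 10 mM DMSO stocks) of replicon cells: stable dicistronic RLuc 1a H77, 1b Con1, 2a JFH-1 (NS5A L31); J6-NS5A chimera in JFH-1 (M31), transient in Huh-Lunet or stable. Renilla luciferase read-out, non-linear regression → EC50. DMSO negative control.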

[8] = 2BS, read-out: 2b (s), stably replicating replicon cells (s), activity range
[9] = read-out: 2b (s) (nM), genotype 2b MD2b-1 NS5A chimeric replicon (M31), stably replicating replicon cells (s)
[10] = read-out: 4a (s) (nM), genotype 4a NS5A chimeric replicon, stable replicon cells (s)
[11] = read-out: 4a (s), (s), activity range
[12] = read-out: 3a (s) (nM), genotype 3a NS5A chimeric replicon, stable replicon cells (s)
[13] = read-out: 3a (s), (s), activity range
[14] = read-out: 2a JFH (nM), genotype 2a JFH-1 replicon (L31 in NS5A), stable cells
[15] = read-out: 2a JFH, stable 2a JFH-1 Rluc replicon cells, L31 in NS5A, activity range
[16] = read-out: 2a J6 (t) (nM), genotype 2a J6 NS5A chimeric replicon (M31), transiently transfected (t) into Huh-Lunet cells
[17] = read-out: 2a J6 (t), transiently transfected (t) into Huh-Lunet cells, activity range

Compound	EC50 [1, 8]	EC50 [1, 9]	EC50 [2]	EC50 ([2]; activity range)	EC50 [3, 10]	EC50 [3, 11]	EC50 [4, 12]	EC50 [4, 13]	EC50 [5]	EC50 [6, 14]	EC50 [6, 15]	EC50 [7, 16]	EC50 [7, 17]	EC50 ([4]; read-out: 3a (t) (nM), genotype 3a NS5A chimeric replicon, transiently transfected (t))	EC50 ([4]; read-out: 3a (t), transiently transfected (t) into Huh-Lunet cells, activity range)
CC[C@H]1CC[C@@H](c2nc3ccc4cc5c(cc4c3[nH]2)OCc2cc(-c3cnc([C@@H]4CC[C@H](C)N4C(=O)[C@@H](NC(=O)OC)C(C)C)[nH]3)ccc2-5)N1C(=O)[C@@H](NC(=O)OC)[C@@H](C)O [GS]	0.1 to 0.999 nM	0.372 nM	0.018 nM	< 0.1 nM	0.017 nM	< 0.1 nM	0.271 nM	0.1 to 0.999 nM	0.021 nM	0.017 nM	< 0.1 nM	0.116 nM	0.1 to 0.999 nM		
COC(=O)N[C@H](C(=O)N1[C@@H](C)CC[C@H]1c1nc2ccc3cc4c(cc3c2[nH]1)OCc1cc(-c2cnc([C@@H]3CC[C@H](C)N3C(=O)[C@@H](NC(=O)OC)[C@@H](C)OC(F)F)[nH]2)ccc1-4)[C@@H](C)OC [GN]	0.1 to 0.999 nM	0.247 nM	0.013 nM	< 0.1 nM	0.016 nM	< 0.1 nM	0.072 nM	< 0.1 nM	0.023 nM	0.017 nM	< 0.1 nM	0.033 nM	< 0.1 nM		
COC(=O)N[C@H](C(=O)N1[C@@H](C)CC[C@H]1c1nc2ccc3cc4c(cc3c2[nH]1)OCc1cc(-c2cnc([C@@H]3C[C@H](F)CN3C(=O)[C@@H](NC(=O)OC)C3CCOCC3)[nH]2)ccc1-4)C(C)C [HT]	1 to 44 nM	1.35 nM	0.07 nM	< 0.1 nM	0.03 nM	< 0.1 nM	0.075 nM	< 0.1 nM	0.11 nM	0.051 nM	< 0.1 nM	0.778 nM	0.1 to 0.999 nM		
COC(=O)N[C@H](C(=O)N1[C@@H](C)CC[C@H]1c1nc2ccc3cc4c(cc3c2[nH]1)OCc1cc(-c2cnc([C@@H]3[C@@H]5C[C@@H]5CN3C(=O)[C@@H](NC(=O)OC)[C@@H](C)OC)[nH]2)ccc1-4)C(C)C [HP]	1 to 44 nM	1.02 nM	0.019 nM	< 0.1 nM	0.023 nM	< 0.1 nM	0.079 nM	< 0.1 nM	0.026 nM	0.014 nM	< 0.1 nM	0.22 nM	0.1 to 0.999 nM		
COC(=O)N[C@@H](C)C(=O)N1[C@@H](C)CC[C@H]1c1ncc(-c2ccc3c(c2)COc2cc4c(ccc5nc([C@@H]6CC[C@H](C)N6C(=O)[C@H](C)NC(=O)OC)[nH]c54)cc2-3)[nH]1 [HF]	1 to 44 nM	16.3 nM	0.043 nM	< 0.1 nM	0.111 nM	0.1 to 0.999 nM	0.556 nM	0.1 to 0.999 nM	0.066 nM	0.06 nM	< 0.1 nM	19.5 nM	1 to 44 nM		
CC[C@H](C)[C@H](NC(=O)OC)C(=O)N1[C@H](c2nc3ccc4cc5c(cc4c3[nH]2)OCc2cc(-c3cnc([C@@H]4CC[C@H](C)N4C(=O)[C@@H](NC(=O)OC)C4CCOCC4)[nH]3)ccc2-5)C[C@@H]2CCC[C@@H]21 [IO]	0.1 to 0.999 nM	0.118 nM	0.027 nM	< 0.1 nM	0.03 nM	< 0.1 nM	0.293 nM	0.1 to 0.999 nM	0.043 nM	0.033 nM	< 0.1 nM	0.07 nM	< 0.1 nM		
CC[C@H](C)[C@H](NC(=O)OC)C(=O)N1[C@@H](C)CC[C@H]1c1nc2ccc3cc4c(cc3c2[nH]1)OCc1cc(-c2cnc([C@@H]3CC[C@H](C)N3C(=O)[C@@H](NC(=O)OC)C(C)C)[nH]2)ccc1-4 [GM]	0.1 to 0.999 nM	0.658 nM	0.012 nM	< 0.1 nM	0.015 nM	< 0.1 nM	0.048 nM	< 0.1 nM	0.016 nM	0.016 nM	< 0.1 nM	0.222 nM	0.1 to 0.999 nM		
COC(=O)N[C@@H](C)C(=O)N1[C@@H](C)CC[C@H]1c1nc2ccc3cc4c(cc3c2[nH]1)OCc1cc(-c2cnc([C@@H]3CC[C@H](C)N3C(=O)[C@@H](NC(=O)OC)C(C)C)[nH]2)ccc1-4 [HC]	1 to 44 nM	1.82 nM	0.012 nM	< 0.1 nM	0.014 nM	< 0.1 nM	0.105 nM	0.1 to 0.999 nM	0.016 nM	0.014 nM	< 0.1 nM	1.43 nM	1 to 44 nM		
CC[C@H]1CC[C@@H](c2ncc(-c3ccc4c(c3)COc3cc5c(ccc6nc([C@@H]7C[C@H](C)CN7C(=O)[C@@H](NC(=O)OC)C7CCOCC7)[nH]c65)cc3-4)[nH]2)N1C(=O)[C@@H](NC(=O)OC)C(C)C [HZ]	< 0.1 nM	0.073 nM	0.012 nM	< 0.1 nM	0.012 nM	< 0.1 nM	0.14 nM	0.1 to 0.999 nM	0.025 nM	0.014 nM	< 0.1 nM	0.023 nM	< 0.1 nM		
COC(=O)N[C@H](C(=O)N1C[C@@H](F)C[C@H]1c1ncc(-c2ccc3c(c2)COc2cc4c(ccc5nc([C@@H]6CC[C@H](C)N6C(=O)[C@@H](NC(=O)OC)C(C)C)[nH]c54)cc2-3)[nH]1)C(C)C [HS]	1 to 44 nM	3.37 nM	0.011 nM	< 0.1 nM	0.008 nM	< 0.1 nM	0.082 nM	< 0.1 nM	0.023 nM	0.022 nM	< 0.1 nM	4.14 nM	1 to 44 nM		
COC[C@H]1C[C@@H](c2nc3ccc4cc5c(cc4c3[nH]2)OCc2cc(-c3cnc([C@@H]4CC[C@H](C)N4C(=O)[C@@H](NC(=O)OC)C(C)C)[nH]3)ccc2-5)N(C(=O)[C@@H](NC(=O)OC)C2CCOCC2)C1 [EF, methyl[(1 S)-2-[(2S,4S)-2-(9-{2-[(2S,5S)-1-{(2S)-2-[(methoxycarbonyl)amino]-3-methylbutanoyl}-5-methylpyrrolidin-2-yl]-1H-imidazol-5-yl}-1,11 dihydroisochromeno[4′,3′:6,7]naphtho[1,2-d]imidazol-2-yl)-4-(methoxymethyl)pyrrolidin-1-yl]-2-oxo-1-(tetra hydro-2H-pyran-4-yl)ethyl]carbamate]	< 0.1 nM	0.091 nM	0.039 nM	< 0.1 nM	0.02 nM	< 0.1 nM	0.12 nM	0.1 to 0.999 nM	0.053 nM	0.014 nM	< 0.1 nM	0.023 nM	< 0.1 nM	0.102 nM	0.1 to 0.999 nM
COC(=O)N[C@H](C(=O)N1C[C@@H](C)C[C@H]1c1ncc(-c2ccc3c(c2)COc2cc4c(ccc5nc([C@@H]6CC[C@H](C)N6C(=O)[C@@H](NC(=O)OC)C6CCOCC6)[nH]c54)cc2-3)[nH]1)C(C)C [FN, Methyl [(2S)-1-{(2S,4S)-2-[5-(2-{(2S,5S)-1-[(2S)-2-[(methoxycarbonyl)amino]-2-(tetrahydro-2H-pyran-4-yl)acetyl]-5-methylpyrrolidin-2-yl}-1,11-dihydroisochromeno[4′,3′:6,7]naphtho[1,2-d]imidazol-9-yl)-1H-imidazol-2-yl]-4-methylpyrrolidin-1-yl}-3-methyl-1-oxobutan-2-yl]carbamate]	0.1 to 0.999 nM	0.142 nM	0.035 nM	< 0.1 nM	0.02 nM	< 0.1 nM	0.084 nM	< 0.1 nM	0.053 nM	0.028 nM	< 0.1 nM	0.068 nM	< 0.1 nM		
CC[C@H]1CC[C@@H](c2nc3ccc4cc5c(cc4c3[nH]2)OCc2cc(-c3cnc([C@@H]4CC[C@H](C)N4C(=O)[C@@H](NC(=O)OC)C(C)C)[nH]3)ccc2-5)N1C(=O)[C@@H](NC(=O)OC)C(C)C [IF]	0.1 to 0.999 nM	0.691 nM	0.016 nM	< 0.1 nM	0.017 nM	< 0.1 nM	0.35 nM	0.1 to 0.999 nM	0.021 nM	0.026 nM	< 0.1 nM	0.84 nM	0.1 to 0.999 nM		
